How the values were obtained:
Type in all cases: in vivo
[1] = test system: beet armyworm (BAW; Spodoptera exigua: Lepidoptera); assay: Insecticidal test for beet armyworm, 128-well diet tray assay
Procedure, shortened: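 Three to five second-instar larvae per well fed on artificial diet surface-treated with 50 μg/cm^2 compound (applied in 90:10 acetone-water, dried). Trays were held six days at 25 °C, 14:10 light-dark. Percent mortality was averaged across eight wells.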

[2] = test system: corn earworm (CEW; Helicoverpa zea: Lepidoptera); assay: Insecticidal test for corn earworm, 128-well diet tray assay
Procedure, shortened: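 Second-instar larvae, three to five per well, placed on artificial diet treated with 50 μg/cm^2 compound applied in 90:10 acetone-water and dried. Held six days at 25° C., 14:10 light-dark. Percent mortality scored per well and averaged over eight wells.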

[3] = test system: green peach aphid (Myzus persicae); assay: Insecticidal test for green peach aphid in foliar spray assay on cabbage seedlings
Procedure, shortened: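 Cabbage seedlings carrying 20-50 aphids (adults and nymphs) were sprayed to runoff with compound at 200 ppm in acetone/methanol diluted in 0.025% Tween 20, with four pots per treatment. After three days at about 25 °C and 40% RH, live aphids were counted. Percent control was Abbott-corrected against solvent-check plants.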

| SMILES | % Mortality BAW 50 μg/cm^2 [1] | % Mortality CEW 50 μg/cm^2 [2] | % Mortality GPA 200 ppm [3] |
| --- | --- | --- | --- |
| CC(OC(=O)Nc1ccc(-c2ncn(-c3ccc(OC(F)(F)F)cc3)n2)cc1)c1ccsc1 (stereo not drawn) [Compound 77] | A (50-100) | A (50-100) | B (Less than 80) |
| CC(C)CC(OC(=O)Nc1ccc(-c2ncn(-c3ccc(OC(F)(F)F)cc3)n2)cc1)c1ccccc1 (stereo not drawn) [Compound 78] | A (50-100) | A (50-100) | B (Less than 80) |
| CCC(OC(=O)Nc1ccc(-c2ncn(-c3ccc(OC(F)(F)F)cc3)n2)cc1)c1ccc(F)cc1 (stereo not drawn) [Compound 79] | A (50-100) | A (50-100) | B (Less than 80) |
| O=C(Nc1ccc(-c2ncn(-c3ccc(OC(F)(F)F)cc3)n2)cc1)OC(c1ccoc1)C(F)(F)F (stereo not drawn) [Compound 80] | A (50-100) | A (50-100) | B (Less than 80) |
| CC(OC(=O)Nc1ccc(-c2ncn(-c3ccc(OC(F)(F)F)cc3)n2)cc1)c1ccc(Cl)cc1 (stereo not drawn) [Compound 81] | A (50-100) | A (50-100) | B (Less than 80) |
| C#CC(OC(=O)Nc1ccc(-c2ncn(-c3ccc(OC(F)(F)F)cc3)n2)cc1)c1ccccc1 (stereo not drawn) [Compound 82] | A (50-100) | A (50-100) | B (Less than 80) |
| O=C(Nc1ccc(-c2ncn(-c3ccc(OC(F)(F)F)cc3)n2)cc1)OC(c1ccccc1)c1ccccc1 [Compound 83] | A (50-100) | A (50-100) | B (Less than 80) |
| CC(OC(=O)Nc1ccc(-c2ncn(-c3ccc(OC(F)(F)F)cc3)n2)cc1)c1ccc(F)cc1 (stereo not drawn) [Compound 84] | A (50-100) | A (50-100) | B (Less than 80) |
| CCC(OC(=O)Nc1ccc(-c2ncn(-c3ccc(OC(F)(F)F)cc3)n2)cc1)c1ccccc1 (stereo not drawn) [Compound 85] | A (50-100) | A (50-100) | B (Less than 80) |
| Cc1noc(C)c1C(C)OC(=O)Nc1ccc(-c2ncn(-c3ccc(OC(F)(F)F)cc3)n2)cc1 (stereo not drawn) [Compound 86] | A (50-100) | A (50-100) | B (Less than 80) |
| CC(C)OC(=O)Nc1ccc(-c2ncn(-c3ccc(OC(F)(F)F)cc3)n2)cc1 [Compound 87] | A (50-100) | B (Less than 50) | B (Less than 80) |
| O=C(Nc1ccc(-c2ncn(-c3ccc(OC(F)(F)F)cc3)n2)cc1)OC(c1ccccc1)C1CC1 (stereo not drawn) [Compound 88] | A (50-100) | A (50-100) | B (Less than 80) |
| Cc1cccc(C)c1C(C)OC(=O)Nc1ccc(-c2ncn(-c3ccc(OC(F)(F)F)cc3)n2)cc1 (stereo not drawn) [Compound 89] | A (50-100) | A (50-100) | B (Less than 80) |
| O=C(Nc1ccc(-c2ncn(-c3ccc(OC(F)(F)F)cc3)n2)cc1)OC(c1ccccc1)C(F)(F)F (stereo not drawn) [Compound 90] | A (50-100) | A (50-100) | B (Less than 80) |
| Cc1ccc(C(C)OC(=O)Nc2ccc(-c3ncn(-c4ccc(OC(F)(F)F)cc4)n3)cc2)cc1 (stereo not drawn) [Compound 91] | A (50-100) | A (50-100) | B (Less than 80) |
| Cc1cccc(C(C)OC(=O)Nc2ccc(-c3ncn(-c4ccc(OC(F)(F)F)cc4)n3)cc2)c1 (stereo not drawn) [Compound 92] | A (50-100) | A (50-100) | B (Less than 80) |
| Cc1ccccc1C(C)OC(=O)Nc1ccc(-c2ncn(-c3ccc(OC(F)(F)F)cc3)n2)cc1 (stereo not drawn) [Compound 93] | A (50-100) | A (50-100) | B (Less than 80) |

| SMILES | % Mortality BAW 50 μg/cm^2 [1] | % Mortality CEW 50 μg/cm^2 [2] | % Mortality GPA 200 ppm [3] |
| --- | --- | --- | --- |
| Cc1ccc2c(c1)CC(C)C(OC(=O)Nc1ccc(-c3ncn(-c4ccc(OC(F)(F)F)cc4)n3)cc1)O2 (stereo not drawn) [Compound 94] | A (50-100) | A (50-100) | B (Less than 80) |
| O=C(Nc1ccc(-c2ncn(-c3ccc(OC(F)(F)F)cc3)n2)cc1)OC1CCc2ccccc2O1 (stereo not drawn) [Compound 95] | A (50-100) | A (50-100) | B (Less than 80) |
| CCC#CC(C)(C)OC(=O)Nc1ccc(-c2ncn(-c3ccc(OC(F)(F)F)cc3)n2)cc1 [Compound 96] | A (50-100) | A (50-100) | B (Less than 80) |
| COc1ccc(C(C)OC(=O)Nc2ccc(-c3ncn(-c4ccc(OC(F)(F)F)cc4)n3)cc2)cc1 (stereo not drawn) [Compound 97] | A (50-100) | A (50-100) | B (Less than 80) |
| CCOC(=O)Nc1ccc(-c2ncn(-c3ccc(OC(F)(F)F)cc3)n2)cc1 [Compound 98] | A (50-100) | A (50-100) | B (Less than 80) |
| CN(C)CC#CC(C)(C)OC(=O)Nc1ccc(-c2ncn(-c3ccc(OC(F)(F)F)cc3)n2)cc1 [Compound 99] | B (Less than 50) | B (Less than 50) | B (Less than 80) |
| COc1ccc(CC(C)(C)OC(=O)Nc2ccc(-c3ncn(-c4ccc(OC(F)(F)F)cc4)n3)cc2)cc1 [Compound 100] | B (Less than 50) | B (Less than 50) | B (Less than 80) |
| CCCCCC(CC)OC(=O)Nc1ccc(-c2ncn(-c3ccc(OC(F)(F)F)cc3)n2)cc1 (stereo not drawn) [Compound 101] | A (50-100) | A (50-100) | B (Less than 80) |
| CCCCCCC(C)OC(=O)Nc1ccc(-c2ncn(-c3ccc(OC(F)(F)F)cc3)n2)cc1 (stereo not drawn) [Compound 102] | B (Less than 50) | B (Less than 50) | B (Less than 80) |
| CC(OC(=O)Nc1ccc(-c2ncn(-c3ccc(OC(F)(F)F)cc3)n2)cc1)C(C)(C)C (stereo not drawn) [Compound 103] | A (50-100) | B (Less than 50) | B (Less than 80) |
| COC(=O)Nc1ccc(-c2ncn(-c3ccc(OC(F)(F)F)cc3)n2)cc1 [Compound 104] | A (50-100) | A (50-100) | B (Less than 80) |
| O=C(Nc1ccc(-c2ncn(-c3ccc(OC(F)(F)F)cc3)n2)cc1)OCc1ccccc1 [Compound 105] | A (50-100) | A (50-100) | B (Less than 80) |
| O=C(Nc1ccc(-c2ncn(-c3ccc(OC(F)(F)F)cc3)n2)cc1)OC1Cc2ccccc2C1 [Compound 106] | B (Less than 50) | A (50-100) | B (Less than 80) |
| CC(Cc1ccccc1)OC(=O)Nc1ccc(-c2ncn(-c3ccc(OC(F)(F)F)cc3)n2)cc1 (stereo not drawn) [Compound 107] | A (50-100) | A (50-100) | B (Less than 80) |
| CC1(OC(=O)Nc2ccc(-c3ncn(-c4ccc(OC(F)(F)F)cc4)n3)cc2)Cc2ccccc2C1 [Compound 108] | B (Less than 50) | B (Less than 50) | B (Less than 80) |
| O=C(Nc1ccc(-c2ncn(-c3ccc(OC(F)(F)F)cc3)n2)cc1)OC1CCc2ccccc21 (stereo not drawn) [Compound 109] | B (Less than 50) | A (50-100) | B (Less than 80) |
| CC(OC(=O)Nc1ccc(-c2ncn(-c3ccc(OC(F)(F)F)cc3)n2)cc1)c1cccnc1 (stereo not drawn) [Compound 110] | A (50-100) | A (50-100) | B (Less than 80) |

Source: patent US8674109B2, “Pesticidal compositions” (Dow AgroSciences, LLC., priority 2009, dated 2014)
